Data from ChEMBL document CHEMBL1201862, “PubChem BioAssay data set” (2004).
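Cultured in 96-well plates, cells were exposed to test compound for 48 hours across five concentrations. The concentration for 50% growth inhibition is given as GI50.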 The source made the active and inactive calls. No stated cut-off is given here; in the data, active = GI50 up to about 1.1 µM and inactive = higher.

Columns and labels:
Assay in all cases: NCI-60 cell line screen, 48 h
A498 = tested on: A498
CAKI-1 = tested on: CAKI-1
CCRF-CEM = tested on: CCRF-CEM
HL-60 = tested on: HL-60
HT-29 = tested on: HT-29
IGROV-1 = tested on: IGROV-1
K562 = tested on: K562
KM12 = tested on: KM12
MDA-MB-435 = tested on: MDA-MB-435
MDA-N = tested on: MDA-N
MOLT-4 = tested on: MOLT-4
NCI-H460 = tested on: NCI-H460
OVCAR-3 = tested on: OVCAR-3
OVCAR-8 = tested on: OVCAR-8
SF-268 = tested on: SF-268
SK-MEL-2 = tested on: SK-MEL-2
SNB-75 = tested on: SNB-75
U-251 = tested on: U-251
UACC-257 = tested on: UACC-257
UO-31 = tested on: UO-31

Measured: GI50

O=C1Oc2ccccc2C(=O)/C1=C\Nc1nc(-c2ccc(O)c(O)c2)cs1
active: MOLT-4 0.447 µM
inactive: A498 11.9 µM | CAKI-1 4.63 µM | CCRF-CEM 1.23 µM | HL-60 2.32 µM | HT-29 4.63 µM | IGROV-1 7.76 µM | K562 1.36 µM | KM12 9.08 µM | MDA-MB-435 4.88 µM | MDA-N 4.98 µM | NCI-H460 5.05 µM | OVCAR-3 2.29 µM | OVCAR-8 4.14 µM | SF-268 5.25 µM | SK-MEL-2 2.47 µM | SNB-75 5.56 µM | U-251 5.01 µM | UACC-257 3.61 µM | UO-31 2.79 µM

Cc1ccc(S(=O)(=O)N2CCNCCN(S(=O)(=O)c3ccc(C)cc3)CCNCC2)cc1
inactive: A498 23.2 µM | CAKI-1 27.6 µM | HL-60 10.2 µM | HT-29 14.1 µM | IGROV-1 19.7 µM | K562 14.2 µM | KM12 20.8 µM | MDA-MB-435 18.1 µM | MDA-N 20.2 µM | NCI-H460 14.7 µM | OVCAR-3 14.2 µM | OVCAR-8 19.2 µM | SF-268 21.8 µM | SK-MEL-2 19.8 µM | SNB-75 20.2 µM | U-251 20.2 µM | UACC-257 16.4 µM | UO-31 19.8 µM

OC1(c2ccccc2)CC2CCC(C1)N2CCc1ccccc1 (stereo unspecified)
inactive: A498 19 µM | CAKI-1 53.2 µM | CCRF-CEM 34 µM | HL-60 58.9 µM | HT-29 23.8 µM | IGROV-1 86.3 µM | K562 45.5 µM | KM12 57.9 µM | MDA-MB-435 55.5 µM | MDA-N 56.8 µM | MOLT-4 29.7 µM | NCI-H460 58.9 µM | OVCAR-3 85.5 µM | OVCAR-8 92.9 µM | SF-268 > 100 µM | SK-MEL-2 > 100 µM | SNB-75 > 100 µM | U-251 > 100 µM | UACC-257 24.5 µM | UO-31 28.1 µM

COc1cc(C2c3cc4c(cc3[C@H](OCCN(C)C)[C@@H]3COC(=O)C23)OCO4)cc(OC)c1O (stereo partly specified)
active: A498 0.105 µM | CAKI-1 0.0519 µM | CCRF-CEM 0.0791 µM | HL-60 < 0.01 µM | HT-29 0.621 µM | K562 0.713 µM | KM12 0.69 µM | MOLT-4 < 0.0123 µM | NCI-H460 < 0.01 µM | OVCAR-8 0.624 µM | SF-268 0.194 µM | SK-MEL-2 0.706 µM | SNB-75 0.307 µM | U-251 0.0468 µM | UO-31 0.417 µM
inactive: IGROV-1 1.36 µM | MDA-MB-435 2 µM | MDA-N 2.12 µM | OVCAR-3 1.46 µM | UACC-257 1.37 µM

Cc1ccc(OCC2OC(n3cnc4c(Cl)nc(Cl)nc43)CC2Oc2ccc(C)cc2)cc1 (stereo unspecified)
inactive: A498 23.1 µM | CAKI-1 1.57 µM | CCRF-CEM 4.3 µM | HL-60 2.36 µM | HT-29 1.57 µM | IGROV-1 2.04 µM | KM12 1.7 µM | MDA-MB-435 2.26 µM | MDA-N 1.93 µM | MOLT-4 1.94 µM | NCI-H460 1.87 µM | OVCAR-3 2.37 µM | OVCAR-8 2.31 µM | SF-268 1.96 µM | SK-MEL-2 2.24 µM | SNB-75 2.52 µM | U-251 2.13 µM | UACC-257 2.68 µM

O=c1cc(-c2ccccc2)oc2ccc(Cl)cc12 [6-CHLOROFLAVONE]
inactive: A498 > 68.5 µM | CAKI-1 > 62.1 µM | CCRF-CEM > 77.8 µM | HL-60 > 46.5 µM | HT-29 > 100 µM | IGROV-1 > 82 µM | K562 > 74.6 µM | KM12 > 64.7 µM | MDA-MB-435 > 41.5 µM | MDA-N > 41.4 µM | MOLT-4 > 74.6 µM | NCI-H460 > 100 µM | OVCAR-3 > 100 µM | OVCAR-8 > 86.5 µM | SF-268 31.8 µM | SK-MEL-2 > 84.7 µM | SNB-75 26.8 µM | U-251 37.7 µM | UACC-257 > 54.5 µM | UO-31 37.4 µM

c1ccc2c3nnc(c2c1)SCCSCCCSCCS3
inactive: A498 45.1 µM | CAKI-1 39.7 µM | CCRF-CEM > 100 µM | HL-60 > 100 µM | HT-29 > 100 µM | IGROV-1 34.4 µM | K562 > 100 µM | KM12 > 100 µM | MDA-MB-435 > 100 µM | MDA-N > 100 µM | NCI-H460 > 100 µM | OVCAR-3 38 µM | OVCAR-8 56.9 µM | SF-268 43.5 µM | SK-MEL-2 58.7 µM | SNB-75 3.52 µM | U-251 36.1 µM | UACC-257 > 100 µM | UO-31 44.3 µM

CCCCCn1c(=O)c2c(=O)[nH][nH]c2c2ccccc21
inactive: A498 > 100 µM | CAKI-1 > 100 µM | CCRF-CEM > 100 µM | HL-60 > 100 µM | HT-29 > 100 µM | IGROV-1 > 100 µM | K562 > 100 µM | KM12 > 100 µM | MDA-MB-435 > 100 µM | MDA-N > 100 µM | MOLT-4 > 100 µM | NCI-H460 > 100 µM | OVCAR-3 > 100 µM | OVCAR-8 > 100 µM | SF-268 > 100 µM | SK-MEL-2 > 100 µM | SNB-75 > 100 µM | U-251 > 100 µM | UACC-257 > 100 µM | UO-31 > 100 µM

COc1cccc(N(CN2C(=O)CCC2C(=O)O)C(C)=O)c1 (stereo unspecified)
inactive: A498 > 100 µM | CAKI-1 > 100 µM | HL-60 > 100 µM | HT-29 > 100 µM | IGROV-1 > 100 µM | K562 > 100 µM | KM12 > 100 µM | MDA-MB-435 > 100 µM | MDA-N > 100 µM | MOLT-4 > 100 µM | NCI-H460 > 100 µM | OVCAR-3 > 100 µM | OVCAR-8 > 100 µM | SF-268 > 100 µM | SK-MEL-2 > 100 µM | SNB-75 > 100 µM | U-251 > 100 µM | UACC-257 > 100 µM | UO-31 > 100 µM

CC(C)=NNc1snnc1C(N)=O
inactive: A498 > 100 µM | CAKI-1 > 100 µM | CCRF-CEM > 100 µM | HL-60 > 100 µM | HT-29 > 100 µM | IGROV-1 > 100 µM | K562 > 100 µM | KM12 > 100 µM | MDA-MB-435 > 100 µM | MDA-N > 100 µM | MOLT-4 > 100 µM | OVCAR-3 > 100 µM | OVCAR-8 > 100 µM | SF-268 > 100 µM | SK-MEL-2 > 100 µM | SNB-75 > 100 µM | U-251 > 100 µM | UACC-257 > 100 µM | UO-31 > 100 µM

COc1cc([C@@H]2c3cc4c(cc3[C@H](OC3OC5COC(c6ccco6)OC5C(O)C3O)C3COC(=O)[C@@H]32)OCO4)cc(OC)c1OC (stereo partly specified)
inactive: A498 2.29 µM | CAKI-1 5.35 µM | HL-60 4.05 µM | HT-29 2.8 µM | IGROV-1 3.56 µM | KM12 4.48 µM | MDA-MB-435 3.59 µM | MDA-N 2.04 µM | NCI-H460 2.16 µM | OVCAR-3 3.21 µM | OVCAR-8 14.2 µM | SF-268 8.2 µM | SK-MEL-2 9.31 µM | SNB-75 > 100 µM | U-251 3.18 µM | UACC-257 5.24 µM | UO-31 25.9 µM

O=[N+]([O-])c1ccccc1S(=O)(=O)c1cccc2c1NCCC2
inactive: A498 > 100 µM | CAKI-1 63.5 µM | CCRF-CEM 28 µM | HL-60 24 µM | HT-29 29.7 µM | IGROV-1 34.3 µM | K562 21.3 µM | KM12 96.4 µM | MDA-MB-435 27.7 µM | MDA-N 28.1 µM | MOLT-4 21.5 µM | NCI-H460 44.2 µM | OVCAR-3 40.6 µM | OVCAR-8 69.3 µM | SF-268 > 100 µM | SK-MEL-2 21.6 µM | SNB-75 14.8 µM | UACC-257 18 µM | UO-31 47.4 µM

O=C(O)C(O)(c1ccc(-c2ccccc2)cc1)c1ccc(-c2ccccc2)cc1
inactive: A498 23.3 µM | CAKI-1 28.8 µM | HL-60 21.5 µM | HT-29 30.2 µM | IGROV-1 23.4 µM | K562 80.9 µM | KM12 19.9 µM | MDA-MB-435 19.5 µM | MDA-N 17.1 µM | MOLT-4 42.2 µM | NCI-H460 20.4 µM | OVCAR-3 15 µM | OVCAR-8 32.5 µM | SF-268 24.3 µM | SK-MEL-2 14.1 µM | SNB-75 17.1 µM | U-251 17.1 µM | UACC-257 36.1 µM | UO-31 42 µM

Cc1cc(O)c(C=O)c2c1C(=O)Oc1c(CO)c(O)c3c(c1O2)C(O)OC3=O (stereo unspecified) [SLAZINIC ACID]
inactive: A498 58.3 µM | CAKI-1 61.5 µM | CCRF-CEM 43 µM | HL-60 30.1 µM | HT-29 > 100 µM | IGROV-1 > 100 µM | KM12 36.7 µM | MDA-MB-435 39.6 µM | MDA-N 66.2 µM | MOLT-4 22.1 µM | OVCAR-3 77.1 µM | OVCAR-8 52.7 µM | SF-268 34.4 µM | SK-MEL-2 97.1 µM | SNB-75 24.1 µM | U-251 60.5 µM | UACC-257 > 100 µM | UO-31 34.5 µM
